From patent US20230102554A1 (GB002, INC., priority 2019, published 2023) come the findings set out here.

In assay [1] the target is T1, Human PDGFRα, cytoplasmic domain (GST-PDGFRα) (Homo sapiens, UniProt P16234).
T1 construct: made in house
Description: Human PDGFRα biochemical inhibition assay (off-chip Mobility Shift Assay).

Assay [2] addresses T2, Human PDGFRβ, cytoplasmic domain (GST-PDGFRβ) (Homo sapiens, UniProt P09619).
T2 construct: made in house
The assay can be described thus: Human PDGFRβ biochemical inhibition assay (off-chip Mobility Shift Assay). The procedure, abridged:
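GST-tagged cytoplasmic domain (aa 557-1106) from baculovirus was incubated 1 h at room temperature with compound, CSKtide, ATP at Km and Mg²⁺ in HEPES buffer, pH 7.5. Phosphorylated and unphosphorylated peptide were separated by off-chip mobility shift, and the product ratio P/(P+S) gave percent inhibition.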

Bounds are passed on as bounds.

T2 sequence (P09619 with tags, fused parts or gaps): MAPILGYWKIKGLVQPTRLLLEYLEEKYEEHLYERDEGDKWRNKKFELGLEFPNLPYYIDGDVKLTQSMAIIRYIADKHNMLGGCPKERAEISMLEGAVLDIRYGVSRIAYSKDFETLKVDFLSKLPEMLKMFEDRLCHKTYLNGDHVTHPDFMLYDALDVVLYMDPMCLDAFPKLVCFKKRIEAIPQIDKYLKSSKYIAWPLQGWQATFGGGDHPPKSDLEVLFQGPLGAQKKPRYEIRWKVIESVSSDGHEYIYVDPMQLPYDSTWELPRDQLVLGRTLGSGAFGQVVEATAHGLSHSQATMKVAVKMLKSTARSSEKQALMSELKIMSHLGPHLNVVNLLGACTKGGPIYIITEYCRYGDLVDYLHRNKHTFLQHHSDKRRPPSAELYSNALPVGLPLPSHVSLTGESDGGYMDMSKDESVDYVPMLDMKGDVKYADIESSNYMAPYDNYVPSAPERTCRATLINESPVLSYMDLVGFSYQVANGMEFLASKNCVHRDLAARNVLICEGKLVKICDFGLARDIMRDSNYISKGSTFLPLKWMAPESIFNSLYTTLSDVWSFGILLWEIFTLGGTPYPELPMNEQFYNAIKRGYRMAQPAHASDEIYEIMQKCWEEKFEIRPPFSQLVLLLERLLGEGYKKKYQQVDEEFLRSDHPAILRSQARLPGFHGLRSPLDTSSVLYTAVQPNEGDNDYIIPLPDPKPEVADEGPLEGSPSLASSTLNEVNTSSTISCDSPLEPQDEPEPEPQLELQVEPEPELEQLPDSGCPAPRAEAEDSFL
T1 sequence (P16234 550-1089 T674I): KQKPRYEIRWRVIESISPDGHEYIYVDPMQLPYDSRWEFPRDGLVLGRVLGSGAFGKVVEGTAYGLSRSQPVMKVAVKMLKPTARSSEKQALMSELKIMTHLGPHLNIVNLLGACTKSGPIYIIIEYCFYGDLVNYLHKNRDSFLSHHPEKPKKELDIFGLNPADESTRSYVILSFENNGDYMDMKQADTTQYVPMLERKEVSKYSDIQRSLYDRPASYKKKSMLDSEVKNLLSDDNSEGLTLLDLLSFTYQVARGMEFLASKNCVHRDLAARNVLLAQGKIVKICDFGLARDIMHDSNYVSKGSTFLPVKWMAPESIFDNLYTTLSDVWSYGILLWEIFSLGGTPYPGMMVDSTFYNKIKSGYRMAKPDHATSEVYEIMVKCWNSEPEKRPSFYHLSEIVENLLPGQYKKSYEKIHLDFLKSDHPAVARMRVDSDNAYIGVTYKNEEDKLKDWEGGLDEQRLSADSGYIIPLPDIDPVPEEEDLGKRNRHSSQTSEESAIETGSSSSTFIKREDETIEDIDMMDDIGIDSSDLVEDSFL

In the case of `CCn1cc2ncc(N[C@@H](C)c3cc(NC(=O)Cc4ccc(C(F)(F)F)cn4)ccc3C)nc2n1` [Compound 661, (S)-N-(3-(1-((2-ethyl-2H-pyrazolo[3,4-b]pyrazin-6-yl)amino)ethyl)-4-methylphenyl)-2-(5-(trifluoromethyl)pyridin-2-yl)acetamide], the figures for the IC50 in assay [1] and in assay [2] were below 0.3 µM and 0.3 to 1 µM, respectively.
In the same order, the values of `C[C@H](Nc1cnc2cnn(C)c2n1)c1cccc(NC(=O)c2cnn(C(C)(C)C)c2)c1` [Compound 148, (S)-1-(tert-butyl)-N-(3-(1-((1-methyl-1H-pyrazolo[3,4-b]pyrazin-6-yl)amino)ethyl)phenyl)-1H-pyrazole-4-carboxamide] are below 0.3 µM and below 0.3 µM.
The like results for `CCn1nc(C(C)C)cc1C(=O)Nc1cccc([C@H](C)Nc2cnc3cnn(C)c3n2)c1` [Compound 167, (S)-1-ethyl-3-isopropyl-N-(3-(1-((1-methyl-1H-pyrazolo[3,4-b]pyrazin-6-yl)amino)ethyl)phenyl)-1H-pyrazole-5-carboxamide] were, in that order, below 0.3 µM and below 0.3 µM.
For the compound `CCn1cc2ncc(N[C@@H](C)c3cc(NC(=O)c4cc(C)c(CN5CCN(C)CC5)c(F)c4)ccc3C)nc2n1` [Compound 528, (S)-N-(3-(1-((2-ethyl-2H-pyrazolo[3,4-b]pyrazin-6-yl)amino)ethyl)-4-methylphenyl)-3-fluoro-5-methyl-4-((4-methylpiperazin-1-yl)methyl) benzamide], the IC50 in assay [1] and in assay [2] was below 0.3 µM in each case.
In the case of `Cc1cncc(C(=O)Nc2cccc([C@H](C)Nc3cnc4ccn(CCN5CCOCC5)c4n3)c2)c1` [Compound 85, (S)-5-methyl-N-(3-(1-((5-(2-morpholinoethyl)-5H-pyrrolo [2,3-b]pyrazin-3-yl)amino)ethyl)phenyl)nicotinamide], the IC50 in assay [1] and in assay [2] was at least 1 µM each time.
In the case of `CCn1cc2ncc(N[C@@H](C)c3cc(NC(=O)Cc4ccc5c(n4)CCCC5)ccc3C)nc2n1` [Compound 728, (S)-N-(3-(1-((2-ethyl-2H-pyrazolo[3,4-b]pyrazin-6-yl)amino)ethyl)-4-methylphenyl)-2-(5,6,7,8-tetrahydroquinolin-2-yl)acetamide], the IC50 in assay [1] and in assay [2] was at least 1 µM throughout.
`COc1ncc(C(=O)Nc2cccc([C@H](C)Nc3cnc4cnn(C)c4n3)c2)cc1Cl` [Compound 187, (S)-5-chloro-6-methoxy-N-(3-(1-((1-methyl-1H-pyrazolo[3,4-b]pyrazin-6-yl)amino)ethyl)phenyl)nicotinamide]: the IC50 in assay [1] and in assay [2] was below 0.3 µM throughout.
Regarding `CCOc1ncc(C(=O)Nc2cccc([C@H](C)Nc3cnc4cn(CC)nc4n3)c2)cc1C` [Compound 314, (S)-6-ethoxyN-(3-(1-((2-ethyl-2H-pyrazolo[3,4-b]pyrazin-6-yl)amino)ethyl)phenyl)-5-methylnicotinamide], the IC50 in assay [1] and in assay [2] was below 0.3 µM in each case.
On to `Cc1cc2ncc(N[C@@H](C)c3cc(NC(=O)c4ccc(C(F)(F)F)nc4)ccc3F)nc2s1` [Compound 615, (S)-N-(4-fluoro-3-(1-((6-methylthieno[2,3-b]pyrazin-3-yl)amino)ethyl)phenyl)-6-(trifluoromethyl)nicotinamide], for which the IC50 in assay [1] and in assay [2] was below 0.3 µM each time.
`C[C@H](Nc1cnc2cnn(C)c2n1)c1cccc(NC(=O)Nc2cccnc2)c1` [Compound 730, (S)-1-(3-(1-((1-methyl-1H-pyrazolo[3,4-b]pyrazin-6-yl)amino)ethyl)phenyl)-3-(pyridin-3-yl)urea]: the values for the IC50 in assay [1] and in assay [2] were below 0.3 µM and 0.3 to 1 µM, respectively.
In the same order, the values of `CCOc1ncc(C(=O)Nc2ccc(F)c([C@H](C)Nc3cnc4cn(CC)nc4n3)c2)cc1C` [Compound 316, (S)-6-ethoxy-N-(3-(1-((2-ethyl-2H-pyrazolo[3,4-b]pyrazin-6-yl)amino)ethyl)-4-fluorophenyl)-5-methylnicotinamide] are below 0.3 µM and below 0.3 µM.
In the case of `Cc1cncc(C(=O)Nc2cccc([C@H](C)Nc3cncc4nn(C)cc34)c2)c1` [Compound 747, (S)-5-methyl-N-(3-(1-((2-methyl-2H-pyrazolo[3,4-c]pyridin-4-yl)amino)ethyl)phenyl)nicotinamide], the IC50 in assay [1] and in assay [2] was at least 1 µM in each case.
Consider `CCn1cc2ncc(N[C@@H](C)c3cccc(NC(=O)Cc4cccc(F)c4F)c3)nc2n1` [Compound 454, (S)-2-(2,3-difluorophenyl)-N-(3-(1-((2-ethyl-2H-pyrazolo[3,4-b]pyrazin-6-yl)amino)ethyl)phenyl)acetamide], for which the IC50 in assay [1] is below 0.3 µM; in assay [2], 0.3 to 1 µM.
In the same order, the values of `CCn1cc2ncc(N[C@@H](C)c3cc(NC(=O)c4cnc(NC)c(C)c4)ccc3F)nc2n1` [Compound 379, (S)-N-(3-(1-((2-ethyl-2H-pyrazolo[3,4-b]pyrazin-6-yl)amino)ethyl)-4-fluorophenyl)-5-methyl-6-(methylamino) nicotinamide] are below 0.3 µM and 0.3 to 1 µM.
The like results for `CCn1cc2ncc(N[C@@H](C)c3cccc(NC(=O)Cc4ccc(C(F)(F)F)c(F)c4)c3)nc2n1` [Compound 628, (S)-N-(3-(1-((2-ethyl-2H-pyrazolo[3,4-b]pyrazin-6-yl)amino)ethyl)phenyl)-2-(3-fluoro-4-(trifluoromethyl)phenyl)acetamide] were, in that order, below 0.3 µM and at least 1 µM.
The like results for `CCn1cc2ncc(N[C@@H](C)c3cccc(NC(=O)c4ccc(NC5CC5)nc4)c3)nc2n1` [Compound 385, (S)-6-(cyclopropylamino)-N-(3-(1-((2-ethyl-2H-pyrazolo[3,4-b]pyrazin-6-yl)amino)ethyl)phenyl)nicotinamide] were, in that order, below 0.3 µM and 0.3 to 1 µM.
Turning to `COc1cncc(C(=O)Nc2cccc([C@H](C)Nc3cnc4[nH]nc(C)c4n3)c2)c1` [Compound 531, (S)-5-methoxy-N-(3-(1-((3-methyl-1H-pyrazolo[3,4-b]pyrazin-5-yl)amino)ethyl)phenyl)nicotinamide], the IC50 in assay [1] and in assay [2] was below 0.3 µM throughout.
Regarding `C[C@H](Nc1cnc2cnn(C)c2n1)c1cccc(NC(=O)c2ccc(OC(F)F)nc2)c1` [Compound 118, (S)-6-(difluoromethoxy)-N-(3-(1-((1-methyl-1H-pyrazolo[3,4-6]pyrazin-6-yl)amino)ethyl)phenyl)nicotinamide], the IC50 in assay [1] and in assay [2] was below 0.3 µM throughout.
For the compound `CCn1cc2ncc(N[C@@H](C)c3cccc(NC(=O)Cc4cc(F)cc(F)c4)c3)nc2n1` [Compound 643, (S)-2-(3,5-difluorophenyl)-N-(3-(1-((2-ethyl-2H-pyrazolo[3,4-b]pyrazin-6-yl)amino)ethyl)phenyl)acetamide], the IC50 was below 0.3 µM in assay [1] and 0.3 to 1 µM in assay [2].
In the same order, the values of `CCn1cc2ncc(N[C@@H](C)c3cc(NC(=O)c4ccc(CN5CCCC5)c(Cl)c4)ccc3F)nc2n1` [Compound 426, (S)-3-chloro-N-(3-(1-((2-ethyl-2H-pyrazolo[3,4-b]pyrazin-6-yl)amino)ethyl)-4-fluorophenyl)-4-(pyrrolidin-1-ylmethyl) benzamide] are below 0.3 µM and below 0.3 µM.
In the same order, the values of `C[C@H](Nc1cnc2cnn(C)c2n1)c1cccc(NC(=O)c2cccc(S(C)(=O)=O)c2)c1` [Compound 226, (S)-N-(3-(1-((1-methyl-1H-pyrazolo[3,4-b]pyrazin-6-yl)amino)ethyl)phenyl)-3-(methylsulfonyl)benzamide] are below 0.3 µM and below 0.3 µM.
The like results for `CCn1cc2ncc(N[C@@H](C)c3cc(NC(=O)c4cnc5c(c4)CCCO5)ccc3F)nc2n1` [Compound 59, (S)-N-(3-(1-((2-ethyl-2H-pyrazolo[3,4-b]pyrazin-6-yl)amino)ethyl)-4-fluorophenyl)-3,4-dihydro-2H-pyrano[2,3-b] pyridine-6-carboxamide] were, in that order, below 0.3 µM and below 0.3 µM.
In the case of `Cc1cncc(C(=O)Nc2cccc([C@H](C)Nc3cnc4ccc(Br)cc4n3)c2)c1` [Compound 39, (S)-N-(3-(1-((7-bromoquinoxalin-2-yl)amino)ethyl)phenyl)-5-methylnicotinamide], the IC50 in assay [1] and in assay [2] was below 0.3 µM in each case.
In the case of `CCn1cc2ncc(N[C@@H](C)c3cc(NC(=O)c4cc(C)c(CN5CC[C@@H](O)C5)c(F)c4)ccc3C)nc2n1` [Compound 527, N-(3-((S)-1-((2-ethyl-2H-pvrazolo[3,4-b]pyrazin-6-yl)amino)ethyl)-4-methylphenyl)-3-fluoro-4-(((R)-3-hydroxypyrrolidin-1-yl)methyl)-5-methylbenzamide], the IC50 in assay [1] and in assay [2] was below 0.3 µM throughout.
With `CCn1cc2ncc(N[C@@H](C)c3cccc(NC(=O)c4ccc(N5CCN(C)CC5)c(C(F)(F)F)c4)c3)nc2n1` [Compound 436, (S)-N-(3-(1-((2-ethyl-2H-pyrazolo[3,4-b]pyrazin-6-yl)amino)ethyl)phenyl)-4-(4-methylpiperazin-1-yl)-3-(trifluoromethyl)benzamide], the IC50 in assay [1] and in assay [2] was below 0.3 µM each time.
For the compound `CCn1cc2ncc(N[C@@H](C)c3cc(NC(=O)c4cc(C)c(CN5CCOCC5)c(F)c4)ccc3C)nc2n1` [Compound 526, (S)-N-(3-(1-((2-ethyl-2H-pyrazolo[3,4-b]pyrazin-6-yl)amino)ethyl)-4-methylphenyl)-3-fluoro-5-methyl-4-(morpholinomethyl)benzamide], the IC50 in assay [1] and in assay [2] was below 0.3 µM each time.
Regarding `CCc1ccc(C(=O)Nc2cccc([C@H](C)Nc3cnc4cnn(C)c4n3)c2)cn1` [Compound 207, (S)-6-ethyl-N-(3-(1-((1-methyl-1H-pyrazolo[3,4-b]pyrazin-6-yl)amino)ethyl)phenyl) nicotinamide], the IC50 in assay [1] and in assay [2] was below 0.3 µM throughout.
